The text below walks through data of patent US9879243B2, “Culture medium for cell growth and transfection” (LIFE TECHNOLOGIES CORPORATION, priority 2001, dated 2018).

Assay [1] relates to 293 cells. As to the kind of experiment: X-gal in situ staining, % transfection efficiency, 293 cells in 24-well plates. It counts as cell-based, human. The conditions noted are these: Example 7. On the procedure: The third well of each treatment was used for in situ staining for β-galactosidase activity (i.e., ˜1×10^6 cells).
The transfection efficiency of cells grown in the presence of ZnSO4+ chelating agent as a replacement for insulin was tested at various concentrations of chelator and ZnSO4 and the results are shown in Table 10. Cells were prepared in monolayer culture in base medium containing the indicated supplements and transfected and assayed as described above.
293 cells were grown in monolayer culture in base media supplemented with the indicated chelator and metal salt at the indicated concentrations. The concentration of the chelator is given in μmoles/l and the concentration of the metal salt is given in μgrams/ml. […] The concentration of the cells in the media was 1×10^6 cell/ml, the concentration of DNA used was 1 μg DNA/10^6 cells, the concentration of LIPOFECTAMINE 2000 used was 8 μl/10^6 cells.
For cells transfected in 24-well plates, cells densities used were 1×10^6 viable cells per well.

The subject of assay [2] is 293 cells. As to the kind of experiment: Effect of replacement compounds on the growth of 293 cells in 293 SFM without transferrin, three passages. Format: cell-based, human. The conditions noted are these: third passage, control 5 μg/mL human holo-transferrin.
[3] abbreviates: 25 μM, iron equimolar where combined.

With `CCc1occc(=O)c1O` [2-Ethyl-3-Hydroxy-4-Pyrone], the results for the “X-gal staining transfection efficiency” value in the assay on 293 cells [1] (media with 1× ZnSO4) and with 293 cells [1] (media with insulin) were roughly 40% and 50-60%, respectively. Also, the “mean percentage of control growth” value was 59 percentage of control growth in the assay with 293 cells [2] (setting [3]), 120 percentage of control growth in the assay on 293 cells [2] (50 μM) and 126 percentage of control growth in the assay with 293 cells [2] (100 μM).

Take “Diethylenetriamine Penta-Acetic Acid•Ferrous Sulfate”: the “mean percentage of control growth” value with 293 cells [2] (setting [3]) is listed as 77 percentage of control growth; in the assay on 293 cells [2] (50 μM), 107 percentage of control growth; with 293 cells [2] (100 μM), 85 percentage of control growth.
